The source made the active and inactive calls. The rule behind the calls is not given here.

The test system of the first assay is MEF. Nature of the assay: Cytotoxicity against mouse Bax and Bak deficient MEF cells. Type of assay: functional, cell-based.
For the compound `C[C@@H]1CN2C[C@H]3CCC4=C5[C@](O)(CC4)CC[C@@]54C(=O)[C@@H]1C[C@@H]2[C@@]34C`, the outcome was inactive.
Take `COC(=O)[C@@H]1C[C@]23CN4CC(CCC5(CCC1C52)C4)[C@@]31CC[C@](OC)(C(C)C)OC1` (some centres not stated): the outcome was inactive.
Regarding `C[C@@H]1CN2C[C@H]3CC[C@]4(O)CC(=O)C5=C4[C@@]4(CC5)C(=O)[C@@H]1C[C@@H]2[C@@]34C`, the result was inactive.
Turning to `C[C@@H]1CN2C[C@H]3CC[C@@]4(O)CC(=O)C5=C4[C@@]4(CC5)C(=O)[C@@H]1C[C@@H]2[C@@]34C`, the result was inactive.

Another assay deals with HCT-116. Nature of the assay: Cytotoxicity against human HCT116 cells. The format is functional, cell-based.
In the case of `C[C@@H]1CN2C[C@H]3CCC4=C5[C@](O)(CC4)CC[C@@]54C(=O)[C@@H]1C[C@@H]2[C@@]34C`, the result was inactive.
Turning to `COC(=O)[C@@H]1C[C@]23CN4CC(CCC5(CCC1C52)C4)[C@@]31CC[C@](OC)(C(C)C)OC1` (some centres not stated), the outcome was inactive.
`C[C@@H]1CN2C[C@H]3CC[C@]4(O)CC(=O)C5=C4[C@@]4(CC5)C(=O)[C@@H]1C[C@@H]2[C@@]34C`: the outcome was inactive.
Still for that read-out and setting: the same measure for `C[C@@H]1CN2C[C@H]3CC[C@@]4(O)CC(=O)C5=C4[C@@]4(CC5)C(=O)[C@@H]1C[C@@H]2[C@@]34C`: “inactive”.

The test system of a further assay is HCT-116. Nature of the assay: Cytotoxicity against human Bax deficient HCT116 cells. Type of assay: functional, cell-based.
As to `C[C@@H]1CN2C[C@H]3CCC4=C5[C@](O)(CC4)CC[C@@]54C(=O)[C@@H]1C[C@@H]2[C@@]34C`, the result was inactive.
With `COC(=O)[C@@H]1C[C@]23CN4CC(CCC5(CCC1C52)C4)[C@@]31CC[C@](OC)(C(C)C)OC1` (some centres not stated), the outcome was inactive.
On to `C[C@@H]1CN2C[C@H]3CC[C@]4(O)CC(=O)C5=C4[C@@]4(CC5)C(=O)[C@@H]1C[C@@H]2[C@@]34C`, for which the outcome was inactive.
In the case of `C[C@@H]1CN2C[C@H]3CC[C@@]4(O)CC(=O)C5=C4[C@@]4(CC5)C(=O)[C@@H]1C[C@@H]2[C@@]34C`, the result was inactive.

For the origin of these results see ChEMBL document CHEMBL1141305, “Daphnipaxianines A-D, alkaloids from Daphniphyllum paxianum” (J Nat Prod, 2007).
